Numbers after ± are expanded uncertainties.
What was measured:
[1] = xn = mol fraction of the nth substance listed; details: 86.5 kPa, Liquid; for viscosity: Capillary tube (Ostwald / Ubbelohde) method; for speed of sound: Frequency=3 MHz, Single path-length method; for mass density: Vibrating tube method
[2] = refractive index (Na D-line) (dimensionless); xn = mol fraction of the nth substance listed; details: 86.5 kPa, Liquid, Standard Abbe refractometry

C[N+](C)(C)CCO.[Cl-] [choline chloride] + NCCO
Details | mass density, [1] [kg/m3] | refractive index, [2] | speed of sound, [1] [m/s] | viscosity, [1] [mPa·s]
288.15 K, x1 = 0.125 | 1090.06 ± 3.1 | 1.4905 ± 0.002 | 1989.5 ± 2.2 | 50.12 ± 1.2
288.15 K, x1 = 0.167 | 1091.28 ± 3.1 | 1.4934 ± 0.002 | 2006.1 ± 2.2 | 59.66 ± 1.4
293.15 K, x1 = 0.125 | 1086.89 ± 3.1 | 1.4884 ± 0.002 | 1977.8 ± 2.2 | 42.39 ± 1.1
293.15 K, x1 = 0.167 | 1088.11 ± 3.1 | 1.4913 ± 0.002 | 1994.5 ± 2.2 | 52.01 ± 1.4
298.15 K, x1 = 0.125 | 1083.96 ± 3.1 | 1.4862 ± 0.002 | 1965.3 ± 2.2 | 35.76 ± 0.89
298.15 K, x1 = 0.167 | 1085.18 ± 3.1 | 1.4891 ± 0.002 | 1982 ± 2.2 | 37.69 ± 0.95
303.15 K, x1 = 0.125 | 1081 ± 3.1 | 1.4844 ± 0.002 | 1953 ± 2.2 | 30.23 ± 0.77
303.15 K, x1 = 0.167 | 1082.22 ± 3.1 | 1.4873 ± 0.002 | 1970.7 ± 2.2 | 38.98 ± 0.82

C[N+](C)(C)CCO.[Cl-] [choline chloride] + OCCO
Details | mass density, [1] [kg/m3] | refractive index, [2] | speed of sound, [1] [m/s] | viscosity, [1] [mPa·s]
288.15 K, x1 = 0.125 | 1113.73 ± 3.1 | 1.467 ± 0.002 | 1919.5 ± 2 | 32.07 ± 0.9
288.15 K, x1 = 0.167 | 1115.91 ± 3.1 | 1.4732 ± 0.002 | 1931.8 ± 2 | 43.39 ± 1.1
293.15 K, x1 = 0.125 | 1111.87 ± 3.1 | 1.4649 ± 0.002 | 1907.5 ± 2 | 24.34 ± 0.76
293.15 K, x1 = 0.167 | 1113.09 ± 3.1 | 1.4711 ± 0.002 | 1920.1 ± 2 | 35.75 ± 0.93
298.15 K, x1 = 0.125 | 1109.07 ± 3.1 | 1.4628 ± 0.002 | 1895.2 ± 2 | 17.71 ± 0.61
298.15 K, x1 = 0.167 | 1110.23 ± 3.1 | 1.4687 ± 0.002 | 1908.6 ± 2 | 28.86 ± 0.79
303.15 K, x1 = 0.125 | 1106.16 ± 3.1 | 1.461 ± 0.002 | 1883.5 ± 2 | 12.19 ± 0.51
303.15 K, x1 = 0.167 | 1107.34 ± 3.1 | 1.4668 ± 0.002 | 1897.1 ± 2 | 22.72 ± 0.68

C[N+](C)(C)CCO.[Cl-] [choline chloride] + OCCOCCO
Details | mass density, [1] [kg/m3] | refractive index, [2] | speed of sound, [1] [m/s] | viscosity, [1] [mPa·s]
288.15 K, x1 = 0.125 | 1115.24 ± 3.1 | 1.4797 ± 0.002 | 1752.1 ± 2 | 110.12 ± 2.7
288.15 K, x1 = 0.167 | 1117.43 ± 3.1 | 1.4857 ± 0.002 | 1764.7 ± 2 | 125.8 ± 3.2
293.15 K, x1 = 0.125 | 1113.38 ± 3.1 | 1.4776 ± 0.002 | 1740.1 ± 2 | 102.39 ± 2.4
293.15 K, x1 = 0.167 | 1114.61 ± 3.1 | 1.4836 ± 0.002 | 1752.3 ± 2 | 118.16 ± 2.9
298.15 K, x1 = 0.125 | 1110.59 ± 3.1 | 1.4754 ± 0.002 | 1728.4 ± 2 | 95.76 ± 2.2
298.15 K, x1 = 0.167 | 1111.75 ± 3.1 | 1.4814 ± 0.002 | 1740.3 ± 2 | 111.27 ± 2.7
303.15 K, x1 = 0.125 | 1107.68 ± 3.1 | 1.4735 ± 0.002 | 1716.3 ± 2 | 90.23 ± 2
303.15 K, x1 = 0.167 | 1108.86 ± 3.1 | 1.4795 ± 0.002 | 1728.4 ± 2 | 105.11 ± 2.5

OCCNCCO [diethanolamine] + C[N+](C)(C)CCO.[Cl-]
Details | mass density, [1] [kg/m3] | refractive index, [2] | speed of sound, [1] [m/s] | viscosity, [1] [mPa·s]
288.15 K, x2 = 0.125 | 1102.46 ± 3.2 | 1.4892 ± 0.002 | 1826.4 ± 2.5 | 506.3 ± 21
288.15 K, x2 = 0.167 | 1104.58 ± 3.2 | 1.492 ± 0.002 | 1839 ± 2.5 | 528.22 ± 22
293.15 K, x2 = 0.125 | 1099.49 ± 3.2 | 1.4871 ± 0.002 | 1812.5 ± 2.5 | 498.57 ± 21
293.15 K, x2 = 0.167 | 1101.42 ± 3.2 | 1.4902 ± 0.002 | 1825.7 ± 2.5 | 520.58 ± 22
298.15 K, x2 = 0.125 | 1096.43 ± 3.1 | 1.485 ± 0.002 | 1798.8 ± 2.5 | 491.94 ± 20
298.15 K, x2 = 0.167 | 1098.48 ± 3.1 | 1.4877 ± 0.002 | 1811.7 ± 2.5 | 513.69 ± 21
303.15 K, x2 = 0.125 | 1092.86 ± 3.1 | 1.4831 ± 0.002 | 1784 ± 2.5 | 486.41 ± 20
303.15 K, x2 = 0.167 | 1095.52 ± 3.1 | 1.4861 ± 0.002 | 1799.1 ± 2.5 | 507.54 ± 21

OCCN(CCO)CCO [triethanolamine] + C[N+](C)(C)CCO.[Cl-]
Details | mass density, [1] [kg/m3] | refractive index, [2] | speed of sound, [1] [m/s] | viscosity, [1] [mPa·s]
288.15 K, x2 = 0.125 | 1124.87 ± 3.2 | 1.49 ± 0.002 | 1715.5 ± 2.2 | 522.91 ± 22
288.15 K, x2 = 0.167 | 1125.76 ± 3.2 | 1.4926 ± 0.002 | 1734.7 ± 2.2 | 552.67 ± 23
293.15 K, x2 = 0.125 | 1122.22 ± 3.2 | 1.4877 ± 0.002 | 1703.1 ± 2.2 | 515.18 ± 21
293.15 K, x2 = 0.167 | 1122.89 ± 3.2 | 1.4905 ± 0.002 | 1723.7 ± 2.2 | 545.03 ± 23
298.15 K, x2 = 0.125 | 1119.73 ± 3.2 | 1.4856 ± 0.002 | 1691.2 ± 2.2 | 508.55 ± 21
298.15 K, x2 = 0.167 | 1120.12 ± 3.2 | 1.4883 ± 0.002 | 1712.2 ± 2.2 | 538.14 ± 23
303.15 K, x2 = 0.125 | 1116.88 ± 3.1 | 1.4835 ± 0.002 | 1678.5 ± 2.2 | 503.02 ± 21
303.15 K, x2 = 0.167 | 1117.58 ± 3.1 | 1.4865 ± 0.002 | 1700.5 ± 2.2 | 531.99 ± 22

OCCOCCOCCO [triethylene glycol] + C[N+](C)(C)CCO.[Cl-]
Details | mass density, [1] [kg/m3] | refractive index, [2] | speed of sound, [1] [m/s] | viscosity, [1] [mPa·s]
288.15 K, x2 = 0.125 | 1118.76 ± 3.2 | 1.492 ± 0.002 | 1641.2 ± 2.2 | 144.03 ± 3.9
288.15 K, x2 = 0.167 | 1120.95 ± 3.2 | 1.498 ± 0.002 | 1660.5 ± 2.2 | 160.22 ± 4.4
293.15 K, x2 = 0.125 | 1116.27 ± 3.1 | 1.4912 ± 0.002 | 1629.7 ± 2.2 | 136.3 ± 3.6
293.15 K, x2 = 0.167 | 1118.12 ± 3.2 | 1.4971 ± 0.002 | 1648.4 ± 2.2 | 152.58 ± 4.2
298.15 K, x2 = 0.125 | 1113.74 ± 3.1 | 1.4887 ± 0.002 | 1617.8 ± 2.2 | 129.67 ± 3.3
298.15 K, x2 = 0.167 | 1115.27 ± 3.1 | 1.4947 ± 0.002 | 1636.8 ± 2.2 | 145.69 ± 3.9
303.15 K, x2 = 0.125 | 1111.2 ± 3.1 | 1.4872 ± 0.002 | 1605.8 ± 2.2 | 124.14 ± 3.1
303.15 K, x2 = 0.167 | 1112.38 ± 3.1 | 1.4928 ± 0.002 | 1624.9 ± 2.2 | 139.54 ± 3.7

Source: the NIST ThermoML archive (doi:10.1021/acs.jced.9b00313)
